Data reported in PubChem BioAssay (NCI).
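Compound exposure: 48 hours, 5 concentrations, 96-well plates. TGI marks complete inhibition of growth.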

Assays:
Test in all cases: NCI tumour cell line growth inhibition, 48 h
[1] = test system: UACC-62 melanoma
[2] = test system: NCI-H522 lung
[3] = test system: PC-3 prostate
[4] = test system: CAKI-1 renal
[5] = test system: A549 NSCLC
[6] = test system: SK-OV-3 ovarian
[7] = test system: NCI/ADR-RES ovarian
[8] = test system: SK-MEL-2 melanoma
[9] = test system: KM12 colon
[10] = test system: SNB-75 CNS

SMILES | TGI [1] [µM] | TGI [2] [µM] | TGI [3] [µM] | TGI [4] [µM] | TGI [5] [µM] | TGI [6] [µM] | TGI [7] [µM] | TGI [8] [µM] | TGI [9] [µM] | TGI [10] [µM]
Cc1nnc(SCc2nc(C#N)c(C#N)nc2CSc2nnc(C)s2)s1 | 30.7 | 9.22 | 41.1 | 11.6 | > 100 | > 75.9 | > 92.2 | 63.4 | 37 | 41.1
COc1cccc2c(=O)oc(-c3ccccc3C)nc12 | > 100 | > 100 | > 100 | > 100 | > 100 | > 100 | > 100 | 67.5 | > 100 | > 100
CC1(C)CCC[C@@]2(C)C1CC[C@@]1(CO)O[C@H](C3=CC(=O)OC3O)C[C@H]12 (stereo not given in full) | 15.3 | 17.4 | 29.5 | 28.6 | > 86.1 | 72.6 | 36.7 | 28.9 | 36.3 | 29.2
COc1ccc2oc(=O)c(-c3cc4c(c(C)n3)c(=O)oc3ccc(OC)cc34)cc2c1 | > 100 | > 100 | > 100 | > 100 | > 100 | > 100 | > 100 | > 100 | > 100 | > 100
CC1=NC(=N)N=C(C)C1N=Nc1ccc2nc(C)[nH]c2c1 (stereo not given) | > 100 | > 100 | > 100 | > 100 | > 100 | > 100 | > 100 | > 100 | > 100 | > 100
